From patent US9186361B2, “Compounds and compositions for the treatment of parasitic diseases” (Novartis AG, priority 2013, dated 2015)

Key:
Type in all cases: cell-based
[1] = system: Trypanosoma brucei Lister 427 strain; test: Assay for proliferation of kinetoplastid parasite Trypanosoma brucei (Cell Titer Glo); settings: bloodstream form, 48 hours, read-out: T. brucei EC50
Description: The proliferation is quantified by the addition of Cell Titer Glo (Promega®) a luminescent cell viability assay that measures the number of viable cells in culture based on the quantification of cellular ATP amount, which is an indicator of metabolically active cells. The following assay illustrates the invention without in any way limiting the scope of the invention. This parasite proliferation assay measures the increase in parasite growth using an assay that measures ATP activity, Cell Titer Glo®.
Trypanosoma brucei Lister 427 strain is grown in HMI-9 Trypanosome media for T. brucei bloodstream form. 30 μl of HMI-9 media is dispensed into 384 well assay plates. 200 nL of compounds of the invention (in DMSO), including anti-trypanosome controls (Pentamidine and suramin), are then transferred into the assay plates, as well as DMSO alone to serve as a negative control for inhibition. Then 25 μl of a suspension of T. brucei culture in HMI-9 media is dispensed into the assay plates. The final concentration of parasites in culture corresponds to 1.7% of 0.5 uM ATP activity with Cell Titer Glo® in HMI-9 media. The plates are placed in a 37° C. incubator for 48 hours in an atmospheric environment containing 5% CO2. 40 μl of Cell Titer Glo® is dispensed into the plates. The plates are then read for luminescence. The percentage inhibition of 50%, EC50, is calculated for each compound.

[2] = system: Leishmania donovani axenic amastigote parasites; test: Assay for Leishmania proliferation in vitro (axenic amastigotes, Cell TiterGlo); settings: 48 h, 2 day incubation, read-out: L. donovani amastigotes EC50
Procedure: Leishmania donovani axenic amastigote parasites are grown at 37° C., 5% CO2 in media made of RPMI 1640, 4 mM L-glutamine, 20% heat inactivated FBS, 100 units/ml of penicillin and 100 μg/ml of streptomycin, 23 μM Folic Acid, 100 μM Adenosine, 22 mM D-glucose, 25 mM MES. The pH of media is adjusted to 5.5 at 37° C. using HCl. 20 μL of media is first dispensed into 384 well plates and […] of the compounds of invention in DMSO are added to the plate wells. At the same time control compounds and DMSO are added to plates to serve as the positive and negative controls, respectively. 40 μL of parasite culture (9600 parasites) are then added to the plate wells. The plates are then placed into incubators. After 2 day incubation, 20 μL of Cell TiterGlo (Promega) is added to the plate wells. The luminescence signal of each well is measured using the Envision reader (Perkin Elmer). The percentage inhibition of 50%, EC50, is calculated for each of the compounds.

[3] = system: L. donovani HU3 strain in mouse peritoneal macrophages; test: Proliferation of L. donovani in mouse peritoneal macrophages (SybrGreen, high-content imaging); settings: Leishmania donovani, Peritoneal macrophage, 120 h; infected mouse peritoneal macrophages, 5 days; read-out: L. donavani Macrophage EC50
Description: The activity of a compound according to the present invention for inhibition of parasitemai can be assessed by the parasite proliferation assay. The assay measures the increase in the parasite number in the assayed plate well using a DNA intercalating dye, SYBR Green I® dye (INVITROGEN) to stain Leishmania cell nuclei. It is understood that the assays illustrate the invention without in any way limiting the scope of the invention.
L. donovani HU3 strain is propagated by infecting BALBc mice through tail vein injection with 10^7 Leishmania parasites. Infected mice are allowed to develop infection during 9-11 weeks post-infection. During this time, the parasites accumulate in the infected mouse spleens to large numbers, and the infected mice serve as the source of parasites for the in vitro measurement of compound efficacies. To assay a compound for anti-leishmanial activity, peritoneal macrophages isolated from non-infected BALBc mice are seeded into 384-well plates at density 2×10^4 macrophages per well in 25 mL of medium (RPMI1640, 10% fetal serum albumin, 10 mM HEPES, 1 mM sodium pyruvate, 1% Pen/Strep). Subsequently, the seeded plates are placed into an incubator set to maintain 37° C. temperature and atmosphere with 5% CO2. The next day, Leishmania parasites are isolated from the spleens of mice infected for 9-11 weeks and 4×10^5 isolated parasites in […] of the above media are added to each plate well. Plates are then returned into incubators and infection is allowed to proceed for 24 hours. After the infection of macrophages is completed, […] of compounds of the invention in the above medium, which also contains 5% DMSO, are added to plate wells containing infected macrophages. At the same time control compounds (miltefosine and amphotericin B) and DMSO are added to plates to serve as the positive and negative controls, respectively. After the compound addition, the plates are returned into incubator and cells infected with parasites are cultured for 5 days. At the end of cultivation, […] of 8% paraformaldehyde is added to plate wells and incubated for 15 min at room temperature. Following the incubation, the paraformaldehyde from plate wells is aspirated, and […] of PBS containing 0.2% Triton X-100 is added to wells. After 15 min incubation, the solution is aspirated from wells again, and replaced with SybrGreen Dye solution in PBS (1:125,000 dilution). Infected cells are imaged with Evotec Opera high-content microscope, and the number of parasites in well is determined by counting parasite nuclei visualized by staining with SybrGreen dye. The percentage inhibition of 50%, EC50, is calculated for each compound.
The inhibitory efficacy of the compounds of the invention against proliferation of L. donovani in mouse peritoneal macrophages is provided in Table I.

[4] = system: Trypanosoma cruzi amastigotes cultured in 3T3 fibroblast cells; test: Assay for proliferation of kinetoplastid parasite Trypanosoma cruzi (beta-galactosidase/CPRG readout); settings: NIH3T3, 144 h, Tulahuen strain in 3T3 cells, 6 day incubation, read-out: T cruzi EC50
Description: Compounds of the invention can be assayed to measure their capacity to inhibit proliferation of kinetoplastid parasite Trypanosoma cruzi. The screening procedure is for identifying compounds with inhibitor activity against Trypanosoma cruzi amastigotes cultured in 3T3 fibroblast cells. The assay is done using the mammalian stage (amastigotes) of T. cruzi that replicates in the intracellular space of host cells. The host cells are initially infected with the culture-derived trypomastigotes that rapidly invade and then divide as amastigotes. The protocol uses the Tulahuen strain of T. cruzi that has been engineered to express the E. coli beta-galactosidase gene (Lac-Z) (Antimicr. Agents Chemoth. 40:2592, 1996). This allows for a colorimetric readout by using the substrate CPRG and an absorbance plate reader.
3T3 fibroblast cells are re-suspended in RPMI-1640 medium without phenol red medium supplemented with 10% FBS (heat inactivated), 100 μg/ml penicillin, and 100 μg/ml streptomycin. Forty μL of suspension (1,000 cells) is dispensed into 384-well plates and incubated overnight at 37° C. temperature and in atmosphere containing 5% CO2. The following day, 100 nL of compounds of the invention in DMSO are added to plate wells containing 3T3 cells. At the same time control compounds (benznidazole and nifurtimox) and DMSO are added to plates to serve as the positive and negative controls, respectively. After that, 10 μL of media containing 10,000 T. cruzi trypomastigotes are added to each plate well and plates are placed back into incubators. After 6 day incubation, 10 μL of reagent solution (0.6 mM CPRG, 0.6% NP-40 in PBS) is added to plates and incubated at room temperature for 2 hours. Absorbance is then measured on SpectraMax Gemini fluorimeter to determine relative number of T. cruzi cells present in each plate well. The percentage inhibition of 50%, EC50, is calculated for each compound.

## CCOC(=O)Nc1cnc2nc(-c3cc(NC(=O)c4ccco4)ccc3Cl)[nH]c2c1 [Example 6, ethyl N-{2-[2-chloro-5-(furan-2-amido)phenyl]-1H-imidazo[4,5-b]pyridin-6-yl}carbamate]
[1]
  EC50: 0.034 µM
[2]
  EC50: 0.58 µM
[3]
  EC50: 1.42 µM

## COC(=O)Nc1cnc2nc(-c3cc(NC(=O)c4ccco4)ccc3Cl)[nH]c2c1 [Example 9, methyl N-{2-[2-chloro-5-(furan-2-amido)phenyl]-1H-imidazo[4,5-b]pyridin-6-yl}carbamate]
[1]
  EC50: 0.143 µM
[2]
  EC50: 0.95 µM
[3]
  EC50: 2.48 µM

## NCC(=O)Nc1cnc2nc(-c3cc(NC(=O)c4ccco4)ccc3Cl)[nH]c2c1 [Example 33, N-{3-[6-(2-aminoacetamido)-1H-imidazo[4,5-b]pyridin-2-yl]-4-chlorophenyl}furan-2-carboxamide]
[2]
  EC50: > 25 µM
[4]
  EC50: 19.1 µM
[3]
  EC50: > 50 µM

## CN1CCC(C(=O)Nc2cnc3nc(-c4cc(NC(=O)c5ccco5)ccc4Cl)[nH]c3c2)CC1 [Example 36, N-{2-[2-chloro-5-(furan-2-amido)phenyl]-1H-imidazo[4,5-b]pyridin-6-yl}-1-methylpiperidine-4-carboxamide]
[2]
  EC50: > 25 µM
[4]
  EC50: 19 µM
[3]
  EC50: > 50 µM

## O=C(Nc1ccc(Cl)c(-c2nc3ncc(NC(=O)C4CC(F)C4)cc3[nH]2)c1)c1ccco1 (stereo not drawn) [Example 38, N-(4-chloro-3-{6-[(3-fluorocyclobutane)amido]-1H-imidazo[4,5-b]pyridin-2-yl}phenyl)furan-2-carboxamide]
[2]
  EC50: 2.13 µM
[4]
  EC50: 4.4 µM
[3]
  EC50: 3.7 µM

## COc1ccc(C(=O)Nc2ccc(Cl)c(-c3nc4ncc(NC(=O)OC(C)C)cc4[nH]3)c2)o1 [Example 39, propan-2-yl N-{2-[2-chloro-5-(5-methoxyfuran-2-amido)phenyl]-1H-imidazo[4,5-b]pyridin-6-yl}carbamate]
[2]
  EC50: 13.8 µM
[4]
  EC50: 6.7 µM
[3]
  EC50: 17.7 µM

## CC1(C(=O)Nc2cnc3nc(-c4cc(NC(=O)c5ccco5)ccc4Cl)[nH]c3c2)COC1 [Example 43, N-{4-chloro-3-[6-(3-methyloxetane-3-amido)-1H-imidazo[4,5-b]pyridin-2-yl]phenyl}furan-2-carboxamide]
[2]
  EC50: > 25 µM
[4]
  EC50: > 20 µM
[3]
  EC50: 47.4 µM

## O=C(Nc1ccc(Cl)c(-c2nc3ncc(NC(=O)C4CCNCC4)cc3[nH]2)c1)c1ccco1 [Example 46, N-{2-[2-chloro-5-(furan-2-amido)phenyl]-1H-imidazo[4,5-b]pyridin-6-yl}piperidine-4-carboxamide]
[2]
  EC50: > 25 µM
[4]
  EC50: > 20 µM
[3]
  EC50: > 50 µM

## CNS(=O)(=O)Nc1cnc2nc(-c3cc(NC(=O)c4ccco4)ccc3Cl)[nH]c2c1 [Example 52, N-(4-chloro-3-{6-[(methylsulfamoyl)amino]-1H-imidazo[4,5-b]pyridin-2-yl}phenyl)furan-2-carboxamide]
[2]
  EC50: > 25 µM
[4]
  EC50: > 20 µM
[3]
  EC50: 28.9 µM

## O=C(Nc1cnc2nc(-c3cc(NC(=O)c4ccco4)ccc3Cl)[nH]c2c1)OCCF [Example 53, 2-fluoroethyl N-{2-[2-chloro-5-(furan-2-amido)phenyl]-1H-imidazo[4,5-b]pyridin-6-yl}carbamate]
[2]
  EC50: 1.31 µM
[4]
  EC50: 3.2 µM
[3]
  EC50: 1.74 µM

## CS(=O)(=O)Nc1ccc(Cl)c(-c2nc3ncc(NS(C)(=O)=O)cc3[nH]2)c1 [Example 58, N-[2-(2-chloro-5-methanesulfonamidophenyl)-1H-imidazo[4,5-b]pyridin-6-yl]methanesulfonamide]
[2]
  EC50: > 25 µM
[4]
  EC50: > 20 µM
[3]
  EC50: > 50 µM

## CC(C)S(=O)(=O)Nc1ccc(Cl)c(-c2nc3ncc(NS(=O)(=O)C(C)C)cc3[nH]2)c1 [Example 59, N-{2-[2-chloro-5-(propane-2-sulfonamido)phenyl]-1H-imidazo[4,5-b]pyridin-6-yl}propane-2-sulfonamide]
[2]
  EC50: > 25 µM
[4]
  EC50: > 20 µM
[3]
  EC50: > 22.8 µM

## CCOC(=O)Nc1cnc2nc(-c3cc(NC(=O)c4ccc(C#N)o4)ccc3Cl)[nH]c2c1 [Example 61, ethyl N-{2-[2-chloro-5-(5-cyanofuran-2-amido)phenyl]-1H-imidazo[4,5-b]pyridin-6-yl}carbamate]
[2]
  EC50: 2.69 µM
[4]
  EC50: > 20 µM
[3]
  EC50: 3.13 µM

## O=C(Nc1ccc(Cl)c(-c2nc3ncc(NC(=O)C4CNC4)cc3[nH]2)c1)c1ccco1 [Example 62, N-{2-[2-chloro-5-(furan-2-amido)phenyl]-1H-imidazo[4,5-b]pyridin-6-yl}azetidine-3-carboxamide]
[2]
  EC50: > 25 µM
[4]
  EC50: > 20 µM
[3]
  EC50: > 28.8 µM

## NCCC(=O)Nc1cnc2nc(-c3cc(NC(=O)c4ccc(F)o4)ccc3Cl)[nH]c2c1 [Example 73, N-{3-[6-(3-aminopropanamido)-1H-imidazo[4,5-b]pyridin-2-yl]-4-chlorophenyl}-5-fluorofuran-2-carboxamide]
[2]
  EC50: > 25 µM
[4]
  EC50: > 20 µM
[3]
  EC50: > 50 µM

## Nc1cnc2nc(-c3cccc(NC(=O)c4ccc(F)o4)c3)[nH]c2c1 [Example 79, N-(3-{6-amino-1H-imidazo[4,5-b]pyridin-2-yl}phenyl)-5-fluorofuran-2-carboxamide]
[2]
  EC50: > 25 µM
[4]
  EC50: 1.46 µM
[3]
  EC50: 24.5 µM
